According to patent publication US20240108740A1, “THERAPEUTIC COMPOSITIONS INCLUDING SPN10 AND USES THEREOF” (Stealth BioTherapeutics Inc., priority 2022, published 2024):
Residues, ends and D or L forms follow the SMILES beside them.

Assays:
Sprague Dawley rats = experiment: Example 54: metabolic syndrome (HFD/STZ); assay type: in vivo, rat; details: 10 weeks of administration
Experimental: Sprague Dawley rats will be fed with a high-fat diet (HFD) for 6 weeks and then administered a single dose of STZ (30 mg/kg). The rats will be maintained on HFD until 14 weeks after STZ administration. Control subjects fed normal rat chow (NRC) for 6 weeks will be administered citrate buffer without STZ. After 5 months, diabetic subjects will be treated with peptide conjugates (10 mg/kg, 3 mg/kg, or 1 mg/kg s.c.q.d. (subcutaneously, once daily)), aromatic-cationic peptides (an equivalent molar dose of aromatic-cationic peptide based on the concentration of the aromatic-cationic peptide administered in the peptide conjugate group), SPN10(s) (an equivalent molar dose of SPN10 based on the concentration of SPN10 administered in the peptide conjugate group), SPN10(s) in combination with aromatic-cationic peptides (e.g., an equivalent molar dose of SPN10 based on the concentration of SPN10 administered in the peptide conjugate treatment group and an equivalent molar dose of aromatic-cationic peptide based on the concentration of aromatic-cationic peptide administered in the peptide conjugate treatment group) or control vehicle (saline) 5 days per week for 10 weeks. The study groups will be as follows: • Group A: HFD/STZ+peptide conjugates 10 mg/kg s.c.q.d. (Mon-Fri.), n=12; • Group B: HFD/STZ+peptide conjugates 3 mg/kg s.c.q.d. […]

Sprague-Dawley rats = experiment: Example 47: wound contraction after burn injury; assay type: in vivo, rat; details: compared to burn control subjects
Experimental: Sprague-Dawley rats (male, 300-350 g) will be pre-treated with (1 mg) peptide conjugates administered i.p. (approx. 3 mg/kg) 1 hour prior to burn (65° C. water, 25 seconds, lower back), followed by the topical application of peptide conjugates to the wound (1 mg), and 1 mg peptide conjugates administered i.p. once every 12 hours for 72 hours. Wounds will be observed for up to 3 weeks post-burn. A similar treatment regimen is followed for the groups treated with aromatic-cationic peptides (an equivalent molar dose of aromatic-cationic peptide based on the concentration of the aromatic-cationic peptide administered in the peptide conjugate treatment group), SPN10(s) (an equivalent molar dose of SPN10 based on the concentration of SPN10 administered in the peptide conjugate treatment group), or SPN10(s) in combination with aromatic-cationic peptides (e.g., an equivalent molar dose of SPN10 based on the concentration of SPN10 administered in the peptide conjugate treatment group and an equivalent molar dose of aromatic-cationic peptide based on the concentration of aromatic-cationic peptide administered in the peptide conjugate treatment group).

With `N=C(N)NCCC[C@H](NC(=O)[C@@H](N)Cc1c[nH]c2ccccc12)C(=O)N[C@@H](Cc1c[nH]c2ccccc12)C(=O)N[C@@H](CCCCN)C(N)=O` [SPN10, H-L-Trp-L-Arg-L-Trp-L-Lys-NH2] (H-WRWK-NH2) the “blood triglyceride level of HFD/STZ rats” value (Sprague Dawley rats) was “reduced to normal levels” and the “rate of wound contraction” value (Sprague-Dawley rats) was “slower rate of wound contraction”.
